The text below walks through data of patent US8450525B2, “Histone deacetylase inhibitors” (Orchid Chemicals & Pharmaceuticals Limited, priority 2007, dated 2013).

The target of experiment [1] is T1, HDAC (Mouse Liver Extract).
T1 construct: Mouse liver enzyme (10 mg/ml) was diluted 1:6 with HDAC buffer
Kind of experiment: HDAC inhibition assay using Boc-Lys(Ac)-AMC substrate, mouse liver enzyme.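 On IC50: IC50 for inhibition of HDAC activity in mouse liver extract.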 It counts as biochemical.

The next experiment concerns the target T2, recombinant HDAC1 enzyme (Homo sapiens, UniProt Q13547).
T2 construct: purchased BIOMOL, USA
Kind of experiment: HDAC1 inhibitory activity, recombinant enzyme. It counts as biochemical. The following applies: recombinant HDAC1 (BIOMOL); read-out: HDAC1 inhibition (IC50). As to the method:
Assay was done in 96-well black microplate and total volume of the assay was 100 μL. Mouse liver enzyme (10 mg/ml) was diluted 1:6 with HDAC buffer. Enzyme cocktail was made of 10 μL of diluted enzyme and 30 μL of HDAC buffer. 40 μl of enzyme cocktail followed by 10 μL of test compound (1 μM and 10 μM) or buffer (control) was added to each well. The plate was pre-incubated at 37° C. for 5 minutes. The HDAC reaction was started by adding 50 μl of HDAC substrate Boc-Lys (Ac)-AMC (Bachem AG, Switzerland). The plate was incubated at 37° C. for 30 minutes. The reaction was stopped by adding 100 μL of Trypsin stop solution and incubating at 37° C. for 15-30 minutes. Measuring the fluorescence at excitation wavelength of 360 nm and emission wavelength of 460 nm monitored the release of AMC. Buffer alone and substrate alone served as blank. […] (Dennis Wegener et al, Anal. Biochem, 321, 2003, 202-208).
Since the benzamide type compounds are known to have potential for HDAC class 1 specificity, active compounds were tested for HDAC1 inhibitory activity. The assay was carried out, as previously described using recombinant HDAC1 enzyme (BIOMOL, USA) and following manufacturer's instructions.

The subject of another experiment is HCT 116 (colon) cells. Kind of experiment: Anti-cancer screen, growth inhibition (MTT). The following applies: Homo sapiens, HCT-116 cells, 48 hours of incubation. It counts as cell-based. Put shortly: (§1)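 MTT added for 3 h at 37° C, formazan dissolved in DMSO and A570 read. A T0 plate was measured at compound addition.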
For a further experiment, the system named is NCI-H460 (lung) cells. Nature of the experiment: Anti-cancer screen, growth inhibition (MTT). The following applies: Homo sapiens, 48 hours of incubation. It counts as cell-based. Put shortly: as §1
The test system of another experiment is U251 (glioma) cells. Nature of the experiment: Anti-cancer screen, growth inhibition (MTT). In kind it is cell-based. As to conditions: Homo sapiens, U-251 cells, 48 hours of incubation. The procedure, abridged: as §1

T2 sequence (Q13547 whole entry): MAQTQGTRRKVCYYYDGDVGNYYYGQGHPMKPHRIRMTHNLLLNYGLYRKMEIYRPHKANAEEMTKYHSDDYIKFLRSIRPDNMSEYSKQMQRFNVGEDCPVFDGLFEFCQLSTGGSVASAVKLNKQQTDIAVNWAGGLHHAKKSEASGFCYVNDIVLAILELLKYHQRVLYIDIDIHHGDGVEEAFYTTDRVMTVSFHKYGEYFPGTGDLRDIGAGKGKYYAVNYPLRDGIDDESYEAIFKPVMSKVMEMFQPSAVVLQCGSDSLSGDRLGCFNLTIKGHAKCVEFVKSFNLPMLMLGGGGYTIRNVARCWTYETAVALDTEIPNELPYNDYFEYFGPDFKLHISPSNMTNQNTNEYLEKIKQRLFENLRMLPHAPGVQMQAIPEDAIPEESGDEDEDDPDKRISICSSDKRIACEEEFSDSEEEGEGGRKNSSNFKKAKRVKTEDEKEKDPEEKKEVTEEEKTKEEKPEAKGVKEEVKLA

For `Nc1ccccc1NC(=O)c1ccc(C=C(C(=O)NC2CC2)c2ccccc2)cc1` [Example 107, N-(2-Aminophenyl)-4-(3-(cyclopropylamino)-2-phenyl-3-oxoprop-1-en-1-yl)benzamide], the results for the IC50 (in experiment [1]; at recombinant HDAC1 enzyme) were 12 µM and 0.18 µM, respectively. Also, the “HDAC Inhibition % (1 μM)” value in experiment [1] was 34.1%. In addition, the “HDAC Inhibition % (10 μM)” value in experiment [1] turned out to be 58.4%. Also, the values for the GI50 in the experiment on HCT 116 (colon) cells, in the experiment with NCI-H460 (lung) cells and in the experiment on U251 (glioma) cells were 2 µM, 5 µM and 4.5 µM, respectively.
In the case of `Nc1ccccc1NC(=O)c1ccc(/C=C(/C(=O)NC2CC2)c2cccc(F)c2)cc1` [Example 110, N-(2-Aminophenyl)-4-(3-(cyclopropylamino)-2-(3-fluorophenyl)-3-oxoprop-1-en-1-yl)benzamide], the IC50 (in general, the point on the concentration scale where inhibition reaches its midpoint) in experiment [1] amounted to 5 µM; on recombinant HDAC1 enzyme it was 0.15 µM. For the same compound, the “HDAC Inhibition % (1 μM)” value in experiment [1] is on record as 45.7%. Besides, the “HDAC Inhibition % (10 μM)” value in experiment [1] came out at 71.4%. Besides, the GI50 (commonly the concentration giving 50% growth inhibition) was 0.3 µM in the experiment with HCT 116 (colon) cells, 5.5 µM in the experiment with NCI-H460 (lung) cells and 5 µM with U251 (glioma) cells.
With `Nc1ccccc1NC(=O)c1ccc(/C=C(/C(=O)NC2CC2)c2ccc3c(c2)OCO3)cc1` [Example 111, N-(2-Aminophenyl)-4-(3-(cyclopropylamino)-2-(1,3-benzodioxol-5-yl)-3-oxoprop-1-en-1-yl)benzamide], the figures for the IC50 (in experiment [1]; on recombinant HDAC1 enzyme) were 8 µM and 0.1 µM, respectively. In experiment [1], the “HDAC Inhibition % (1 μM)” value was 24.8%. In addition, the “HDAC Inhibition % (10 μM)” value in experiment [1] was 52.2%. In addition, the GI50 was 1.1 µM in the experiment on HCT 116 (colon) cells, 2.1 µM in the experiment on NCI-H460 (lung) cells and 1.5 µM in the experiment with U251 (glioma) cells.
On to `Nc1ccccc1NC(=O)c1ccc(/C=C(/C(=O)NC2CC2)c2ccccc2Cl)cc1` [Example 112, N-(2-Aminophenyl)-4-(3-(cyclopropylamino)-2-(2-chlorophenyl)-3-oxoprop-1-en-1-yl)benzamide], for which the figures for the IC50 (in experiment [1]; at recombinant HDAC1 enzyme) were 4.5 µM and 0.049 µM, respectively. The “HDAC Inhibition % (1 μM)” value in experiment [1] is listed as 29.9%. In addition, the “HDAC Inhibition % (10 μM)” value in experiment [1] turned out to be 55.7%. The GI50 turned out to be 6 µM with HCT 116 (colon) cells, 1.1 µM in the experiment with NCI-H460 (lung) cells and 20 µM with U251 (glioma) cells.
For `Nc1ccccc1NC(=O)c1ccc(/C=C(/C(=O)NC2CC2)c2cccc(Cl)c2)cc1` [Example 114, N-(2-Aminophenyl)-4-(3-(cyclopropylamino)-2-(3-chlorophenyl)-3-oxoprop-1-en-1-yl)benzamide], the figures for the concentration for half-maximal inhibition (IC50) (in experiment [1]; at recombinant HDAC1 enzyme) were 5.5 µM and 0.044 µM, respectively. In addition, the “HDAC Inhibition % (1 μM)” value in experiment [1] turned out to be 34.5%. Also, the “HDAC Inhibition % (10 μM)” value in experiment [1] worked out at 59.0%. Moreover, the figures for the GI50 in the experiment on HCT 116 (colon) cells, in the experiment with NCI-H460 (lung) cells and in the experiment with U251 (glioma) cells were 0.4 µM, 5 µM and 4 µM, respectively.
Consider `O=C(CCCCCNC(=O)c1ccc(/C=C(/C(=O)NC2CC2)c2cccc(F)c2)cc1)NO` [Example 164, 4-(3-(Cyclopropylamino)-2-(3-fluorophenyl)-3-oxoprop-1-en-1-yl)-N-(6-(hydroxyamino)-6-oxohexyl)benzamide], for which, in experiment [1], the “HDAC Inhibition % (1 μM)” value amounted to 91.9%. The “HDAC Inhibition % (10 μM)” value in experiment [1] turned out to be 100.0%. Further, the GI50 in the experiment on HCT 116 (colon) cells is 15 µM; with NCI-H460 (lung) cells, 28 µM; in the experiment on U251 (glioma) cells, 30 µM.
On the same counts, the results for `O=C(CCCCCCC(=O)Nc1ccc(/C=C(/C(=O)NC2CC2)c2ccc(F)cc2)cc1)NO` [Example 165, N-(4-(3-(Cyclopropylamino)-2-(4-fluorophenyl)-3-oxoprop-1-en-1-yl)phenyl)-N′-hydroxyoctanediamide] are 91.5%, 96.8%, 5.6 µM, 15 µM and 11 µM.
